Where a name gives a salt, the structure may show the parent alone.
Legend:
[1] = tested on: water-immersion stress-induced gastric ulcer (Slc:SD rats); assay: Water-immersion stress ulceration method; assay type: in vivo, rat (male Slc:SD); conditions: for Inhibition rate: vs non-treated control
Description: The stomachs were incised along the greater curvature, and the ulcers thus induced were measured for length under the stereoscopic microscope (magnification,×10), whereby the total sum of the lengths was taken as an ulcer index (U.I., in mm). The test substance was given orally to rats in the form of a 4% gum arabic suspension 30 minutes before stress loading.

Acute toxicity = conditions: mouse, in vivo; male ddY mice, single oral dose, observed for 7 days
Source text: A group of five male ddY mice (4-weeks aged) was used for testing.
The compound of Example 1 was suspended in 4% gum arabic solution to prepare a test pharmaceutical, which was given orally to each test animals once.

[2] = 30 mg/kg, oral, 30 minutes before stress loading, 7 hours stress
[3] = 10 mg/kg, oral, 30 minutes before stress loading, 7 hours stress

Row | Structure (SMILES) | Inhibition rate ([1]; 30 mg/kg, control reference (Cimetidine), no significance mark) [%] | ulcer index (U.I.), Mean ± S.E. [1, 2] [mm] | ulcer index (U.I.), Mean ± S.E. [1, 3] [mm] | Inhibition rate [1, 3] [%] | Inhibition rate ([1]; 30 mg/kg, oral, 30 minutes before stress loading, 7 hours stress, *p < 0.05) [%] | ulcer index (U.I.), Mean ± S.E. ([1]; 100 mg/kg, oral, 30 minutes before stress loading, 7 hours stress) [mm] | Inhibition rate ([1]; 100 mg/kg, oral, 30 minutes before stress loading, 7 hours stress, **p < 0.01) [%] | LD50 at 168 h (Acute toxicity) [mg/kg]
1 | CN/C(=N/CCSCc1nc[nH]c1C)NC#N [Cimetidine, reference compound] | 61.4 | 5.2 ± 3.40 | – | – | – | – | – | –
2 | O=C(CNc1ccncc1)Nc1ccccc1Nc1ccccc1 [Example 1, N-[2-(phenylamino),phenyl]-2-[(4-pyridinyl)-amino]actetamide hydrochloride] | – | 3.8 ± 1.66 | 13.0 ± 4.47 | 2.8 | 71.3 | 1.5 ± 1.31 | 88.8 | ≥ 2000
